{"source": "patent US11813264B2", "about": "“PAR1 modulation to alter myelination” (Mayo Foundation for Medical Education and Research, priority 2014, dated 2023)", "system": "PLP and MBP RNA expression", "experiment": "Myelin gene expression (PLP, MBP RNA) in Oli-neu oligodendrocytes, quantitative RT-PCR", "assay_type": "cell-based, mouse", "conditions": "24 hours", "protocol": "Oli-neu oligodendrocytes are derived from mouse primary oligodendrocyte cultures retrovirally transduced to constitutively express the t-neu oncogene (Jung et al., Eur J Neurosci 7:1245-1265, 1995). All morphology, signaling, and myelin gene expression studies using Oli-neu oligodendrocytes were performed in media containing DMEM, 1% N2, 2 mM Glutamax, 1 mM sodium pyruvate, 20 mM HEPES buffer, and 50 μM β-mercaptoethanol (Sigma Aldrich. To evaluate PAR and Klk6 gene expression in Oli-neu (Table 2), cells were differentiated by treatment with 1 mM N^6, 2′-O-dibutyryladenosine 3′, 5′-cyclic monophosphate disodium salt (dbcAMP) for 72 hours prior to harvesting for RNA isolation. All cells were maintained at 37° C. in 95% air and 5% CO2. Cell culture reagents were obtained from Life Technologies (Carlsbad, CA) unless otherwise indicated. All cell culture experiments were performed in triplicate and repeated at least twice.\nExpression of oligodendrocyte PARs and Klk6-real-time quantitative PCR: Total RNA was isolated from cultured cells using RNA STAT-60 (Tel-Test, Friendswood, TX). Klk6, PAR1, or PAR2 RNA expression was determined in 0.5 μg of RNA with the iScript one-step RT-PCR kit with SYBR® Green and the iCycler iQ5 system (BioRad, Hercules, CA). Transcript copy number was determined using a standard curve prepared by parallel amplification of cDNA clones diluted to known copy number (Christophi et al., J Neurochem 91:1439-1449, 2004). Amplification of the housekeeping gene glyceraldehyde phosphate 3-dehydrogenase (GAPDH) was used to control for loading. The mean and standard error (SEM) of transcript copy number was determined and data expressed as RNA copy number on a logarithmic scale.\nRegulation of oligodendrocyte myelin gene expression by PAR1 agonists: Primary murine oligodendrocytes (3 DIV) or Oli-neu oligodendrocytes were seeded at 3.5×10^5 cells/well in six-well tissue culture plates. Cells were then treated with Klk6 (30-300 nM), Klk1 (300 nM), thrombin (270 nM), or PAR1-AP (100 μM) for 24 hours prior to RNA isolation. Expression of myelin-associated genes, PLP, and MBP was examined by real-time quantitative RT-PCR. Expression levels of target genes were normalized to GAPDH and expressed as percent control."}
{"substance": "Klk6: Recombinant murine kallikrein-related peptidase 6 expressed using a baculovirus system", "values": [{"measurement": "MBP RNA", "value": "no significant suppression"}, {"measurement": "PLP RNA at 30, 150 and 300 nM", "value": "significant and equivalent PLP RNA down regulation"}, {"measurement": "PLP expression", "setting": "Klk6 300 nM, thrombin 270 nM, PAR1-AP 100 μM, Klk1 300 nM", "value": "significantly diminished"}]}
